Data set [1] is described as follows: Aqueous solubility of the compound in phosphate buffer at pH 7. The format is physicochemical.
Data set [2] deals with Rattus norvegicus. The data set can be described thus: Antiinflammatory activity in po dosed rat assessed as inhibition of carrageenan-induced paw edema. The format is functional. Background: Carrageenan injected into the paw causes an acute inflammation.
Data set [3] deals with Rattus norvegicus. As to the kind of experiment: Analgesic activity in po dosed rat by hyperesthesia test. The data set is classed as functional.
In data set [4] the test system is Rattus norvegicus. The data set can be described thus: Antipyretic activity in po dosed rat administered on days 17 to 20 measured on day 20. The note with it: 480 h.
For data set [5], the system named is Rattus norvegicus. As to the kind of experiment: Antiinflammatory activity in po dosed rat assessed as reduction in adjuvant arthritis-induced lesion administered for 1 to 14 days measured on day 14. The data set is classed as functional.
The species entered for another data set is Homo sapiens. The data set can be described thus: Inhibition of prostaglandin synthetase (unknown origin).
Data set [6] relates to Rattus norvegicus. The data set can be described thus: Antiinflammatory activity in po dosed Wistar rat assessed as reduction in adjuvant arthritis-induced lesion administered on days -1 through 1 measured on days 0 and 14.
Data set [7] concerns Rattus norvegicus. The data set can be described thus: Antiinflammatory activity in po dosed rat assessed as reduction in adjuvant arthritis-induced lesion administered on days 17 to 20 post adjuvant arthritis-challenge measured on day 20. The format is functional. The note with it: 480 h.
The test system of data set [8] is Rattus norvegicus. As to the kind of experiment: Gastrointestinal toxicity in rat assessed as gastric hemorrhage administered on days 17 to 20 measured on day 20. The format is organism-based, Stomach. The note with it: in vivo.
In the next data set the test system is Canis familiaris. The data set can be described thus: Antiinflammatory activity in po dosed dog assessed as reduction in urate synovitis measured after 2 hrs. The format is functional. The note with it: Canis lupus familiaris.
Data set [9] relates to Rattus norvegicus. The data set can be described thus: Antipyretic activity in po dosed rat assessed as dose required to produce drop in body temperature of 1 degC administered on days 17 to 20 measured on day 20. The format is functional. The note with it: 480 h.

Converted amounts (≈) assume the structure as drawn.

Consider `O=C(O)c1cc(-c2c[nH]cn2)ccc1O`, for which the solubility in [1] was determined as 1100 µg/mL (≈ 5.39 mM). Besides, the ED50 in the data set on Rattus norvegicus [2] was found to be 100 mg/kg.
`O=C(O)c1cc(-n2ccnc2)ccc1O`: the concentration in solution in data set [1] (solubility) came to 2000 µg/mL (≈ 9.8 mM). Also, the median effective dose (ED50) with Rattus norvegicus [2] is 75 mg/kg; in the data set on Rattus norvegicus [3], 65 mg/kg.
Turning to `O=C(O)c1cc(-c2cc[nH]n2)ccc1O`, the ED50 with Rattus norvegicus [2] is over 250 mg/kg.
With `O=C(O)c1cc(-c2cocn2)ccc1O`, in the data set with Rattus norvegicus [2], the ED50 was 110 mg/kg.
Same read-out and setting: the figure for `O=C(O)c1cc(-n2cncn2)ccc1O` is 200 mg/kg; for `O=C(O)c1ccc(-n2cccc2)cc1O` it is 200 mg/kg.
Take `O=C(O)c1cc(-c2csnn2)ccc1O`: in the data set on Rattus norvegicus [2], the ED50 was over 200 mg/kg.
Still for that read-out and setting: the figure for `O=C(O)c1cc(-c2cnco2)ccc1O` is over 200 mg/kg.
Turning to `CCCCOC(=O)Oc1ccc(-n2cccc2)cc1C(=O)O`, the ED50 stood at 52 mg/kg in the data set with Rattus norvegicus [2] and 38 mg/kg with Rattus norvegicus [3].
In the case of `O=C(O)c1cc(-c2nccs2)ccc1O`, the median effective dose (ED50) with Rattus norvegicus [2] is over 250 mg/kg.
Take `O=C(O)c1cc(-c2ncc[nH]2)ccc1O`: the median effective dose (ED50) in the data set on Rattus norvegicus [2] came to 200 mg/kg.
Turning to `O=C(O)c1cc(-c2ccns2)ccc1O`, in data set [1], the solubility was found to be 7300 µg/mL (≈ 33 mM). Further, the figures for the 50% effective dose (ED50) in the data set on Rattus norvegicus [2] and with Rattus norvegicus [3] were 80 mg/kg and over 80 mg/kg, respectively.
On to `CC(=O)Oc1ccc(-n2cccc2)cc1C(=O)O`, for which the ED50 in the data set with Rattus norvegicus [2] stood at 42 mg/kg; in the data set on Rattus norvegicus [3] it was 35 mg/kg.
For the compound `O=C(O)c1cc(-c2cncs2)ccc1O`, the ED50 in the data set on Rattus norvegicus [2] is over 200 mg/kg.
Regarding `O=C(O)c1cc(-c2cccs2)ccc1O`, the solubility in data set [1] came out at 7000 µg/mL (≈ 31.8 mM). In addition, the 50% effective dose (ED50) with Rattus norvegicus [2] was determined as 60 mg/kg.
Turning to `O=C(O)c1ccccc1O` [SALICYLIC ACID], the median effective dose (ED50) in the data set on Rattus norvegicus [2] was 200 mg/kg; with Rattus norvegicus [3], over 150 mg/kg.
For `CC(=O)Oc1ccccc1C(=O)O` [ASPIRIN], the 50% effective dose (ED50) in the data set on Rattus norvegicus [4] is 43 mg/kg; in the data set with Rattus norvegicus [5] it was 33 mg/kg; with Rattus norvegicus [2] it was 90 mg/kg; in the data set on Rattus norvegicus [6], 46 mg/kg; in the data set on Rattus norvegicus [7], 25 mg/kg; with Rattus norvegicus [8] it was 16 mg/kg. In addition, the figures for the 50% effective dose (ED50) in the data set on Canis familiaris and with Rattus norvegicus [3] were 68 mg/kg and 90 mg/kg, respectively. Also, the ID50 in the data set listed under Homo sapiens was 5 µg/mL (≈ 0.0278 mM).
As to `O=C(O)c1cc(-n2cccc2)ccc1O`, the 50% effective dose (ED50) with Rattus norvegicus [5] was 64 mg/kg; in the data set with Rattus norvegicus [2], 50 mg/kg; in the data set with Rattus norvegicus [6], 58 mg/kg; with Rattus norvegicus [7], 35 mg/kg; in the data set on Rattus norvegicus [8] it was over 800 mg/kg; in the data set on Canis familiaris, 39 mg/kg. This compound showed an ED50 with Rattus norvegicus [3] of 30 mg/kg. In the data set listed under Homo sapiens, this compound showed an ID50 of 0.3 µg/mL (≈ 0.00148 mM). In addition, the ED10 with Rattus norvegicus [9] was found to be 401 mg/kg. Also, the concentration in solution in data set [1] (solubility) came to 8600 µg/mL (≈ 42.3 mM).
For `O=C(O)c1cc(-c2ccccn2)ccc1O`, in the data set on Rattus norvegicus [2], the ED50 was 200 mg/kg.
For `O=C(O)c1ccc(-c2ncco2)cc1O`, the 50% effective dose (ED50) in the data set on Rattus norvegicus [2] is over 250 mg/kg.
The compound `O=C(O)c1ccc(-c2cscn2)cc1O` yielded a solubility in data set [1] of 8700 µg/mL (≈ 39.3 mM). For the same compound, the ED50 in the data set on Rattus norvegicus [2] was 70 mg/kg; with Rattus norvegicus [3], over 80 mg/kg.
In the case of `O=C(O)c1cc(-n2nccn2)ccc1O`, the 50% effective dose (ED50) in the data set with Rattus norvegicus [2] turned out to be 150 mg/kg.
Same read-out and setting: then `O=C(O)c1cc(-c2ccncn2)ccc1O`, with over 200 mg/kg.
Compound `O=C(O)c1cc(-c2cscn2)ccc1O` came in with a solubility in data set [1] of 2700 µg/mL (≈ 12.2 mM). The 50% effective dose (ED50) with Rattus norvegicus [2] came out at 95 mg/kg; with Rattus norvegicus [3], 90 mg/kg.
The compound `O=C(O)c1cc(-c2ncccn2)ccc1O` returned a solubility in data set [1] of 6000 µg/mL (≈ 27.8 mM). Further, in the data set on Rattus norvegicus [2], the ED50 was 100 mg/kg.
Take `O=C(O)c1cc(-n2ccnn2)ccc1O`: in the data set with Rattus norvegicus [2], the ED50 was 150 mg/kg.
As to `O=C(O)c1cc(C2N=NN=N2)ccc1O`, the concentration in solution in [1] (solubility) came to 1700 µg/mL (≈ 8.25 mM). For the same compound, the ED50 in the data set with Rattus norvegicus [2] came out at 110 mg/kg.
Consider `O=C(O)c1cc(-c2ccc(F)cc2F)ccc1O` [DIFLUNISAL], for which the median effective dose (ED50) with Rattus norvegicus [2] came out at 9.8 mg/kg; in the data set on Rattus norvegicus [3], 4.6 mg/kg.
As to `O=C(O)c1cc(-c2cccnc2)ccc1O`, the ED50 in the data set with Rattus norvegicus [2] was over 250 mg/kg.
On the same count and under the same terms, the figure for `O=C(O)c1cc(-n2cnnc2)ccc1O` is over 250 mg/kg.
The same measure, in the same setting: then `O=C(O)c1cc(-c2ccno2)ccc1O`, with 110 mg/kg; and `O=C(O)c1ccc(-c2nccs2)cc1O`, with 110 mg/kg.
For the compound `O=C(O)c1cc(-c2ncco2)ccc1O`, the solubility in [1] came to 6000 µg/mL (≈ 29.2 mM). Besides, the 50% effective dose (ED50) in the data set with Rattus norvegicus [2] came to 100 mg/kg.
Take `O=C(O)c1cc(-n2cccn2)ccc1O`: the 50% effective dose (ED50) with Rattus norvegicus [2] was found to be 200 mg/kg.

In general, solubility refers to how much of the substance goes into solution per volume. The low end stands for a poorly soluble substance, the high end for a readily soluble substance. Broadly, the ED50 is the dose at which the effect has come halfway, by size or by number of responders.
